Results published in PubChem BioAssay (NCI).
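A five-concentration, 48-hour dose response in 96-well plates underlies each endpoint, interpolated linearly between surrounding concentrations. The concentration for 50% growth inhibition is given as GI50. TGI: concentration producing complete growth inhibition.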

Columns and labels:
Experiment in all cases: NCI tumour cell line growth inhibition, 48 h
[1] = test system: DU-145 prostate
[2] = test system: HCT-116 colon
[3] = test system: LOX IMVI melanoma
[4] = test system: MALME-3M melanoma
[5] = test system: MDA-MB-231 breast
[6] = test system: NCI-H460 lung
[7] = test system: SK-MEL-2 melanoma
[8] = test system: SF-295 CNS
[9] = test system: OVCAR-5 ovarian
[10] = test system: CAKI-1 renal
[11] = test system: SF-268 CNS
[12] = test system: M14 melanoma
[13] = test system: MOLT-4 leukemia
[14] = test system: KM12 colon
[15] = test system: OVCAR-8 ovarian
[16] = test system: SNB-19 CNS
[17] = test system: EKVX NSCLC
[18] = test system: NCI-H522 lung
[19] = test system: MCF7 breast
[20] = test system: RPMI-8226 leukemia
[21] = test system: HS 578T breast
[22] = test system: SF-539 CNS
[23] = test system: SN12C renal
[24] = test system: UACC-62 melanoma
[25] = test system: TK-10 renal
[26] = test system: NCI-H226 lung
[27] = test system: NCI/ADR-RES ovarian
[28] = test system: A498 renal

Compound `CCn1c2ccc(/C=N/OCCCN(C)C)cc2c2cc(/C=N/OCCCN(C)C)ccc21` has a GI50 [1] of 3.46 µM, a TGI [1] of 12.3 µM and a GI50 [2] of 1.27 µM. For the same compound, the TGI [2] was 2.7 µM, the GI50 [3] was 1.5 µM and the TGI [3] was 2.94 µM. It also gave a GI50 [4] of 1.8 µM, a TGI [4] of 3.4 µM and a GI50 [5] of 2.23 µM. For the same compound, the TGI [5] was 5.34 µM, the GI50 [6] was 2.02 µM and the TGI [6] was 4.36 µM. It also gave a GI50 [7] of 15.7 µM, a TGI [7] of 30.3 µM and a GI50 [8] of 1.94 µM. The TGI [8] was 3.82 µM, the GI50 [9] was 2.88 µM and the TGI [9] was 11.5 µM. For the same compound, the GI50 [10] was 1.43 µM, the TGI [10] was 2.74 µM and the GI50 [11] was 3.69 µM. It also gave a TGI [11] of 14.2 µM, a GI50 [12] of 1.7 µM and a TGI [12] of 3.23 µM. The GI50 [13] was 1.92 µM, the TGI [13] was 6.21 µM and the GI50 [14] was 3.24 µM. It also gave a TGI [14] of 13.7 µM, a GI50 [15] of 2.07 µM and a TGI [15] of 4.88 µM. It also gave a GI50 [16] of 3.65 µM, a TGI [16] of 14 µM and a GI50 [17] of 3.26 µM. It also gave a TGI [17] of 13.7 µM, a GI50 [18] of 1.73 µM and a TGI [18] of 3.43 µM. The GI50 [19] was 1.49 µM, the TGI [19] was 3.07 µM and the GI50 [20] was 1.77 µM. It also gave a TGI [20] of 4.08 µM, a GI50 [21] of 2.52 µM and a TGI [21] of 7.95 µM. It also gave a GI50 [22] of 1.62 µM, a TGI [22] of 2.99 µM and a GI50 [23] of 9.08 µM. It also gave a TGI [23] of 21.5 µM, a GI50 [24] of 1.92 µM and a TGI [24] of 3.87 µM. It also gave a GI50 [25] of 14.1 µM, a TGI [25] of 28.2 µM and a GI50 [26] of 10 µM. The TGI [26] was 25.2 µM, the GI50 [27] was 1.97 µM and the TGI [27] was 4.89 µM. For the same compound, the GI50 [28] was 4.45 µM and the TGI [28] was 17.2 µM.
